# Measured values as given in PubChem BioAssay AID1845216 (Molecular Pharmacology Branch, DTP, NCI, 2023).
# Values joined by “and” are separate entries in the source; they are usually repeats but may differ in a detail not shown here. Identical values can stand only once.
# Tested on: SW 982 tumor spheroid viability
# Test: Anticancer human tumor SW 982 cell line growth inhibition;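 also: spheroids exposed to compound for 7 days before readout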
# Details: spheroids with HUVEC and MSC; for viability, T/C: stronger effect = lower value
# In short: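 Single agents and combinations were tested on spheroids built from tumor cells plus HUVEC and hMSC, at half-log dilutions starting at or near clinical Cmax, else 10 microM; final DMSO 0.25% (v/v).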
compound,measurement,setting,value
Cn1ncnc1[C@H]1c2n[nH]c(=O)c3cc(F)cc(c23)N[C@@H]1c1ccc(F)cc1 + COc1cc2c(cc1O)CCNC21CSC2c3c(OC(C)=O)c(C)c4c(c3C(COC1=O)N1C(O)C3Cc5cc(C)c(OC)c(O)c5C(C21)N3C)OCO4,IC50,"curve of first compound, second compound 30 pM",> 3 µM
same,IC50,"curve of first compound, second compound 94.9 pM",2.74 µM
same,IC50,"curve of first compound, second compound 0.0003 µM",1.83 µM
same,IC50,"curve of first compound, second compound 0.000949 µM",< 0.00949 µM
same,IC50,"curve of first compound, second compound 0.003 µM",< 0.00949 µM
same,"viability, T/C","second compound 30 pM, first compound 0.00949 µM",93.6%
same,"viability, T/C","second compound 30 pM, first compound 0.03 µM",89.1%
same,"viability, T/C","second compound 30 pM, first compound 0.0949 µM",85.9%
same,"viability, T/C","second compound 30 pM, first compound 0.3 µM",85%
same,"viability, T/C","second compound 30 pM, first compound 0.949 µM",76.3%
same,"viability, T/C","second compound 30 pM, first compound 3 µM",52.6%
same,"viability, T/C","second compound 94.9 pM, first compound 0.00949 µM",80.7%
same,"viability, T/C","second compound 94.9 pM, first compound 0.03 µM",85.3%
same,"viability, T/C","second compound 94.9 pM, first compound 0.0949 µM",82%
same,"viability, T/C","second compound 94.9 pM, first compound 0.3 µM",82%
same,"viability, T/C","second compound 94.9 pM, first compound 0.949 µM",66.3%
same,"viability, T/C","second compound 94.9 pM, first compound 3 µM",48.6%
same,"viability, T/C","second compound 0.0003 µM, first compound 0.00949 µM",76%
same,"viability, T/C","second compound 0.0003 µM, first compound 0.03 µM",73.5%
same,"viability, T/C","second compound 0.0003 µM, first compound 0.0949 µM",70%
same,"viability, T/C","second compound 0.0003 µM, first compound 0.3 µM",76.1%
same,"viability, T/C","second compound 0.0003 µM, first compound 0.949 µM",54.6%
same,"viability, T/C","second compound 0.0003 µM, first compound 3 µM",46.6%
same,"viability, T/C","second compound 0.000949 µM, first compound 0.00949 µM",32.3%
same,"viability, T/C","second compound 0.000949 µM, first compound 0.03 µM",28.7%
same,"viability, T/C","second compound 0.000949 µM, first compound 0.0949 µM",25.2%
same,"viability, T/C","second compound 0.000949 µM, first compound 0.3 µM",27%
same,"viability, T/C","second compound 0.000949 µM, first compound 0.949 µM",14.8%
same,"viability, T/C","second compound 0.000949 µM, first compound 3 µM",2.84%
same,"viability, T/C","second compound 0.003 µM, first compound 0.00949 µM",0.32%
same,"viability, T/C","second compound 0.003 µM, first compound 0.03 µM",0.45%
same,"viability, T/C","second compound 0.003 µM, first compound 0.0949 µM",0.37%
same,"viability, T/C","second compound 0.003 µM, first compound 0.3 µM",0.38%
same,"viability, T/C","second compound 0.003 µM, first compound 0.949 µM",0.36%
same,"viability, T/C","second compound 0.003 µM, first compound 3 µM",0.91%
CNCc1ccc(-c2cc(-c3nc(-c4ccc(S(=O)(=O)C(C)C)cc4)cnc3N)on2)cc1 + Cn1nnc2c(C(N)=O)ncn2c1=O,IC50,"curve of first compound, second compound 1 µM",0.219 µM
same,IC50,"curve of first compound, second compound 3.16 µM",0.228 µM
same,IC50,"curve of first compound, second compound 10 µM",0.16 µM
same,IC50,"curve of first compound, second compound 31.6 µM",0.109 µM
same,IC50,"curve of first compound, second compound 100 µM",0.0534 µM
same,"viability, T/C","second compound 1 µM, first compound 0.00949 µM",95.6%
same,"viability, T/C","second compound 1 µM, first compound 0.03 µM",89.3%
same,"viability, T/C","second compound 1 µM, first compound 0.0949 µM",75.1%
same,"viability, T/C","second compound 1 µM, first compound 0.3 µM",38%
same,"viability, T/C","second compound 1 µM, first compound 0.949 µM",28.6%
same,"viability, T/C","second compound 1 µM, first compound 3 µM",14.7%
same,"viability, T/C","second compound 3.16 µM, first compound 0.00949 µM",92.9%
same,"viability, T/C","second compound 3.16 µM, first compound 0.03 µM",87.2%
same,"viability, T/C","second compound 3.16 µM, first compound 0.0949 µM",68.8%
same,"viability, T/C","second compound 3.16 µM, first compound 0.3 µM",39.5%
same,"viability, T/C","second compound 3.16 µM, first compound 0.949 µM",29.8%
same,"viability, T/C","second compound 3.16 µM, first compound 3 µM",9.23%
same,"viability, T/C","second compound 10 µM, first compound 0.00949 µM",72.7%
same,"viability, T/C","second compound 10 µM, first compound 0.03 µM",71.9%
same,"viability, T/C","second compound 10 µM, first compound 0.0949 µM",60%
same,"viability, T/C","second compound 10 µM, first compound 0.3 µM",35.3%
same,"viability, T/C","second compound 10 µM, first compound 0.949 µM",26.7%
same,"viability, T/C","second compound 10 µM, first compound 3 µM",8.84%
same,"viability, T/C","second compound 31.6 µM, first compound 0.00949 µM",69%
same,"viability, T/C","second compound 31.6 µM, first compound 0.03 µM",67.7%
same,"viability, T/C","second compound 31.6 µM, first compound 0.0949 µM",51.6%
same,"viability, T/C","second compound 31.6 µM, first compound 0.3 µM",31.7%
same,"viability, T/C","second compound 31.6 µM, first compound 0.949 µM",23.1%
same,"viability, T/C","second compound 31.6 µM, first compound 3 µM",8.96%
same,"viability, T/C","second compound 100 µM, first compound 0.00949 µM",63.5%
same,"viability, T/C","second compound 100 µM, first compound 0.03 µM",58.8%
same,"viability, T/C","second compound 100 µM, first compound 0.0949 µM",43.5%
same,"viability, T/C","second compound 100 µM, first compound 0.3 µM",28.1%
same,"viability, T/C","second compound 100 µM, first compound 0.949 µM",22.7%
same,"viability, T/C","second compound 100 µM, first compound 3 µM",5.36%
Cc1cc(C)c(CNC(=O)c2cc(-c3ccc(CN4CCOCC4)cc3)cc3c2cnn3C2CCCC2)c(=O)[nH]1,"viability, T/C",compound 0.0316 µM,111% and 101% and 106%
same,"viability, T/C",compound 0.1 µM,99.1% and 105% and 100%
same,"viability, T/C",compound 0.316 µM,97.4% and 99.9% and 105%
same,"viability, T/C",compound 1 µM,102% and 99.6% and 105%
same,"viability, T/C",compound 3.16 µM,95.3% and 98.8% and 82%
same,"viability, T/C",compound 10 µM,60.5% and 58.6% and 69%
same,IC50,curve of compound,> 10 µM
